# Reference: US20030157176A1, “Antimicrobially treated material and methods of preventing coloring thereof” (priority 2001, published 2003)
# Assay: Silver ion concentration ranges in the water system
# Conditions: dissociated in water system
# Text: A basic idea of the present invention for preventing coloring of silver zeolite is to make an purposeful use of the concentration rages of silver ions dissociated from silver zeolite in water system, i.e., a concentration range A which is effective for antimicrobial action and a concentration range B which is responsible for coloring.
# Namely, the concentration range A which is effective for antimicrobial action is more than 1 ppm that is the antimicrobially effective concentration of silver ions while the concentration range B which is responsible for coloring is 40 ppm or more, so that a concentration range C for silver ions dissociated in the water system, which is effective for antimicrobial action without causing coloring, exists between 1 ppm and 40 ppm (preferably between 5 ppm and 30 ppm).
# The concentration range of silver ions dissociated from 1000 ppm silver zeolite in the water system varies from 40 ppm to 600 ppm. This variation is probably due to a decrease in the silver ion concentration caused by generation of silver oxide or adsorption of silver ions in the water system, or is under the influence of the degree of dissociation of silver ions by metal salts, surfactants, and temperature. […]
substance,measurement,value
silver ions,antimicrobially effective concentration of silver ions (range A),more than 1 ppm
same,silver ion concentration responsible for coloring (range B),≥ 40 ppm
